Experimental data as given in article PMC6876247 (Proceedings of the National Academy of Sciences of the …, 2019).

Target: T1, GPR43 (Mus musculus, UniProt Q8VCK6)
T1 sequence (Q8VCK6 1-330): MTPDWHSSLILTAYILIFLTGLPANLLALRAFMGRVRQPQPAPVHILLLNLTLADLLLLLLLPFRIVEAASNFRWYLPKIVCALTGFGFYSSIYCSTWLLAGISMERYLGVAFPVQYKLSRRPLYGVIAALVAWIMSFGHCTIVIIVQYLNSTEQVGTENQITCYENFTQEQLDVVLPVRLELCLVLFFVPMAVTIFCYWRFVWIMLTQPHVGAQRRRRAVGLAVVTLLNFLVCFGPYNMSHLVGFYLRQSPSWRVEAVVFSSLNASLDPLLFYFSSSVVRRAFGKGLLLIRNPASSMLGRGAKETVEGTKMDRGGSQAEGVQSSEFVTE
Format: cell-based

`CC(=O)CC(=O)O` [acetoacetate] was tested, and the EC50 was 760 µM.
